Assay results: publication PMC4038586, “Venus Kinase Receptors Control Reproduction in the Platyhelminth Parasite Schistosoma mansoni” (PLoS Pathogens, 2014)

Target: T1, SmVKR2 (Schistosoma mansoni, UniProt D5JEH1)
T1 construct: full-length, pcDNA3.1-V5/His (V5 or Myc tag), cRNA-injected Xenopus laevis oocytes; about 170 kDa; active as homodimer
Assay: GVBD assay in receptor-expressing Xenopus oocytes; receptor autophosphorylation by Western blot
Format: cell-based
Conditions: agonist; ND96 medium without Ca2+; VFT domain

T1 sequence (D5JEH1 21-1641): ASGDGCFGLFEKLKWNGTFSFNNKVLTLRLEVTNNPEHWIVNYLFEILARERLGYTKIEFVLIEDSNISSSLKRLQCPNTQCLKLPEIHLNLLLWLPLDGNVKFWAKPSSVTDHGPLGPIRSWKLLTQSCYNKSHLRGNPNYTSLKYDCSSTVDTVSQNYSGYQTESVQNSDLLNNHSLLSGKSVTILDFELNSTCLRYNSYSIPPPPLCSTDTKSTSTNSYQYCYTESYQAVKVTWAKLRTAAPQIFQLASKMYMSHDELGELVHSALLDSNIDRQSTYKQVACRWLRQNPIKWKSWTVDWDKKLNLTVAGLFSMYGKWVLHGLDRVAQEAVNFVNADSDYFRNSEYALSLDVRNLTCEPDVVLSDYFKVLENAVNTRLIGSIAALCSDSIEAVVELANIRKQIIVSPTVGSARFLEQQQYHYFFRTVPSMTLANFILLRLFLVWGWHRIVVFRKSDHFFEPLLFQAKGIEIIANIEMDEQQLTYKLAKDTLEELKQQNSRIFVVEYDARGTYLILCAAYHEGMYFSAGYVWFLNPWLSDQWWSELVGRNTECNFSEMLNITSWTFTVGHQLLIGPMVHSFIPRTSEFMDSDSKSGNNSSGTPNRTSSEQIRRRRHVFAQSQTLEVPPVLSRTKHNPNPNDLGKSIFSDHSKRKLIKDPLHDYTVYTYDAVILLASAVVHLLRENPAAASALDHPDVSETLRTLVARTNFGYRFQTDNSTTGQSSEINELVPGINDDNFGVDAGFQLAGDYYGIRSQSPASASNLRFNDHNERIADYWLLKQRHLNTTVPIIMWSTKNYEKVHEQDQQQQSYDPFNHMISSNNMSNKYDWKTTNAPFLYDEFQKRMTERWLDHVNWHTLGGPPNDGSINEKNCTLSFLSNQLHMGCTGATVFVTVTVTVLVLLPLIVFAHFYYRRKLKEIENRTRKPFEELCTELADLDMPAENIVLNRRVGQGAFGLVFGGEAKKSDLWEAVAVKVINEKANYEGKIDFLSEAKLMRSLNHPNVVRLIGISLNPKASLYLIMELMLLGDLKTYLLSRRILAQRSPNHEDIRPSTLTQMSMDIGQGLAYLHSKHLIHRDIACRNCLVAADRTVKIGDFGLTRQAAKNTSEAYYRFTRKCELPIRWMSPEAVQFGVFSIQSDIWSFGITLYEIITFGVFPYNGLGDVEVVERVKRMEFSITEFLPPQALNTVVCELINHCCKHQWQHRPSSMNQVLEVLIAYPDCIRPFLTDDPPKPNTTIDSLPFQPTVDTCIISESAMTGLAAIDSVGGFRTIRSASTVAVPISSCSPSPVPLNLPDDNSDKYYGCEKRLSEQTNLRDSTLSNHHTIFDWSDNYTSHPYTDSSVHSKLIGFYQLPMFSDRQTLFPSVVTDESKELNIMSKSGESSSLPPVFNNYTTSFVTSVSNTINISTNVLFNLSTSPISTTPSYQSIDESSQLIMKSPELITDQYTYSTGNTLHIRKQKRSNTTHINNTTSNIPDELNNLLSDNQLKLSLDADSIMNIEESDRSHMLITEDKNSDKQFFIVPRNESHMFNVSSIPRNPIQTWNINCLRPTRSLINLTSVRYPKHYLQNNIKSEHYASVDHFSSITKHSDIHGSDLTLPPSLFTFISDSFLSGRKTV

SMILES | minimal concentration
N=C(N)NCCC[C@H](N)C(=O)O [L-Arg] | 1 mM

Target: T2, SmVKR1 (Schistosoma mansoni, UniProt Q8WSM2)
T2 construct: full-length, pcDNA3.1-V5/His (V5 or Myc tag), cRNA-injected Xenopus laevis oocytes; about 150 kDa; active as homodimer
Assay: GVBD competition assay in receptor-expressing Xenopus oocytes
Format: cell-based
Conditions: competitive antagonist; 10-fold excess over L-Arg; inactive as agonist

T2 sequence (Q8WSM2 24-1559): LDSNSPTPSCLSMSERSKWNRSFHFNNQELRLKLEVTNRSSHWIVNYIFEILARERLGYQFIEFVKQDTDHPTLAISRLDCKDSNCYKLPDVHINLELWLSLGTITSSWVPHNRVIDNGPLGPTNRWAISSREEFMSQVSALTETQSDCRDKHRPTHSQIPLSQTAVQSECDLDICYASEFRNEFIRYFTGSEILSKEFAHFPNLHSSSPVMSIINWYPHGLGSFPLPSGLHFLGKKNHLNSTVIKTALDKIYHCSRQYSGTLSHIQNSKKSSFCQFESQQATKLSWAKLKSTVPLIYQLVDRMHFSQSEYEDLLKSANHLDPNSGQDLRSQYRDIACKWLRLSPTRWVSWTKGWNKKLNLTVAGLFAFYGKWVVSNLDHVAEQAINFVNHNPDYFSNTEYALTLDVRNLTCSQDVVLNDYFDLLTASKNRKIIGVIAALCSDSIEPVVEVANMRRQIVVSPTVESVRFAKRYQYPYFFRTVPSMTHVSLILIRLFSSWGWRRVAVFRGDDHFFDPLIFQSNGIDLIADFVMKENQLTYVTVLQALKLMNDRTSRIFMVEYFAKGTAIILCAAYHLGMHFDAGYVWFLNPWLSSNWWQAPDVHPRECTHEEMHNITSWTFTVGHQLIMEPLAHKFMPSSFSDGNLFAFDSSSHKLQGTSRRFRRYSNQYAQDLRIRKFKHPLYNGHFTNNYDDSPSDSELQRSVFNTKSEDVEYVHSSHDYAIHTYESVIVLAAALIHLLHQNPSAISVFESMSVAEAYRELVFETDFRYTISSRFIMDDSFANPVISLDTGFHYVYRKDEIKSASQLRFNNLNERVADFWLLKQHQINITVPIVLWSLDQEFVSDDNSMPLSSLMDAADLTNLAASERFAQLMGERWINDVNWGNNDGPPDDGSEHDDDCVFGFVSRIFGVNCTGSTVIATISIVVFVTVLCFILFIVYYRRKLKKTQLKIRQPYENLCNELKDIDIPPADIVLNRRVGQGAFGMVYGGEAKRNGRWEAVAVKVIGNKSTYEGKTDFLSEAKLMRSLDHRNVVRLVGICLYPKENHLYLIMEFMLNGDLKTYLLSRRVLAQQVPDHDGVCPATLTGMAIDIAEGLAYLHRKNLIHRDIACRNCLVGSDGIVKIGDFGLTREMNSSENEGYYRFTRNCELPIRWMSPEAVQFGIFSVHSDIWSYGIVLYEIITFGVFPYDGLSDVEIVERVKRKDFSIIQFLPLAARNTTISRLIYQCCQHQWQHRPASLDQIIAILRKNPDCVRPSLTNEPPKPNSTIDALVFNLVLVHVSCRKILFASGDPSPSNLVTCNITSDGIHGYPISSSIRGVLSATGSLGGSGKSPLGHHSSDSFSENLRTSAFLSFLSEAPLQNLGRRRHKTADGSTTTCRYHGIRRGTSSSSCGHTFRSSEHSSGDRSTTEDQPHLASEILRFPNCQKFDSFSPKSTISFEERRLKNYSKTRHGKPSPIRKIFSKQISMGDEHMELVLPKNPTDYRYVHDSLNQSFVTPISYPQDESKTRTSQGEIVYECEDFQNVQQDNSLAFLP

SMILES | GVBD competition assay in receptor-expressing Xenopus oocytes
N=C(N)NCCC[C@@H](N)C(=O)O [D-Arg] | compete and to block totally the inducing effect of L-Arg
NCCC[C@H](N)C(=O)O [ornithine] | compete and to block totally the inducing effect of L-Arg
CN(CC(=O)O)C(=N)N [creatine] | compete and to block totally the inducing effect of L-Arg
N=C(N)NOCC[C@H](N)C(=O)O [Canavanine] | compete and to block totally the inducing effect of L-Arg
N=C(N)NCCCCN [agmatine] | compete and to block totally the inducing effect of L-Arg

Target: T2, SmVKR1
Assay: GVBD assay in receptor-expressing Xenopus oocytes; receptor autophosphorylation by Western blot
Format: cell-based
Conditions: agonist; ND96 medium, 19 °C, 15 h; VFT domain; activation independent of Ca2+

SMILES | % GVBD at 1 μM
N=C(N)NCCC[C@H](N)C(=O)O [L-Arg] | 80%

Target: T2, SmVKR1
Assay: GVBD assay in receptor-expressing Xenopus oocytes
Format: cell-based
Conditions: agonist

SMILES | GVBD at 1 mM
N[C@@H](CO)C(=O)O [Ser] | (Arg, Ser, Gly, Ala, Cys, Thr and Glu) had the potential to activate SmVKR1
NCC(=O)O [Gly] | (Arg, Ser, Gly, Ala, Cys, Thr and Glu) had the potential to activate SmVKR1
C[C@H](N)C(=O)O [Ala] | (Arg, Ser, Gly, Ala, Cys, Thr and Glu) had the potential to activate SmVKR1
N[C@@H](CS)C(=O)O [Cys] | (Arg, Ser, Gly, Ala, Cys, Thr and Glu) had the potential to activate SmVKR1
C[C@@H](O)[C@H](N)C(=O)O [Thr] | (Arg, Ser, Gly, Ala, Cys, Thr and Glu) had the potential to activate SmVKR1
N[C@@H](CCC(=O)O)C(=O)O [Glu] | (Arg, Ser, Gly, Ala, Cys, Thr and Glu) had the potential to activate SmVKR1
